These results are taken from patent US12590108B2, “Boracic acid compound” (Phaeno Therapeutics Co., Ltd, priority 2020, dated 2026).

Structures are written as SMILES. Like-named read-outs stand apart in the source and are kept apart here.

Data set [1] is described as follows: Pharmacokinetics of the compound in rats (intravenous and oral). The format is in vivo. The conditions noted are these: male, SD, plasma, rat; for Vd: read-out: Vdss. The protocol:
The pharmacokinetic characteristics of the compound in rodents after intravenous injection and oral administration were tested by standard protocol. Specifically, the fasting SD male rats in the experiment were given the candidate compounds by intravenous injection and oral administration. Both oral preparation and intravenous preparation were prepared into 10 mg/mL or 30 mg/mL clear solutions with physiological saline and were administered by intravenous bolus or gavage for 5 minutes. Plasma samples were collected and analyzed by LC-MS/MS method, and pharmacokinetic parameters were calculated.

The test system of data set [2] is Klebsiella pneumoniae ARLG-1196 (CTM-1 group, SHV, NDM, TEM). The data set is described as follows: MIC shift, liquid microdilution, meropenem fixed at 4 μg/mL. The format is cell-based. On the procedure: (§1) The test compound was tested for minimum inhibitory concentration against three strains of Klebsiella pneumoniae ATCC BAA-1705 (KPC-2), ATCC BAA-2470 (NDM-1), and ARLG-1196 (CTM-1 group, SHV, NDM, TEM), and one strain of Escherichia coli ARLG-2829 (NDM-5, OXA-1). According to the requirements of the Institute of Clinical And Laboratory Standard (CLSI), the minimum inhibitory concentration (MIC) of each drug combination was determined by liquid microdilution method under the premise of fixing the concentration of meropenem at 4 μg/mL.
(§2) Preparation of compound mother plate: On the day of the experiment, the compound to be tested (the final concentration was 0.3125 to 20 μg/mL) and meropenem (the final concentration ranged from 1 to 64 μg/mL) were dissolved in a corresponding solvent (sterile ddH2O or DMSO) to form 100× mother liquors with the highest test concentration, and the compound to be tested and meropenem were then subjected to 2-fold series gradient dilution in a V-bottom 96-well plate to obtain 100× working solutions with the final concentration.
(§3) Preparation of inoculation solution: Fresh bacterial clones were picked from an overnight Mueller Hinton II Agar medium (MHA, Cat. No. 211438, BD BBLTM) plate, suspended in sterilized physiological saline, and adjusted to a concentration of 1×10^8 CFU/mL, and the suspension was further diluted to 5-10^5 CFU/mL with Cation-Adjusted Mueller Hinton II Broth (MHB, Catalog #212332, BD BBLTM).
(§4) Detection of minimum inhibitory concentration (MIC): 1 μL of the compound to be tested and the meropenem working solution were transferred to the corresponding wells to be tested in a round-bottomed 96-well plate (Catalog #3788, Corning), and 98 μL of the inoculation solution was added to the round-bottomed 96-well plate containing drugs, which was an MIC test plate; and after the plate was inverted and cultured at 37° C. for 20-24 h, the MIC value was read, and the minimum inhibitory concentration for inhibiting bacterial growth was defined as MIC.

Data set [3] relates to Escherichia coli ARLG-2829 (NDM-5, OXA-1). The description is as above. It counts as cell-based. The protocol:
as §1, §2, §3, §4

Data set [4] has as its system Klebsiella pneumoniae ATCC BAA-1705 (KPC-2). The data set is described as above. It counts as cell-based. The conditions noted are these: K. pneumoniae ATCC BAA-1705, KPC-2. On the procedure: as §1, §2, §3, §4
Data set [5] deals with Klebsiella pneumoniae ATCC BAA-2470 (NDM-1). The description is as above. The conditions noted are these: K. pneumoniae ATCC BAA-2470, NDM-1. The format is cell-based. On the procedure:
as §1, §2, §3, §4

The test system of data set [6] is Klebsiella pneumoniae NCTC 13439 (VIM). The data set is described as follows: MIC shift, liquid microdilution, test compound fixed at 8 μg/mL. It counts as cell-based. The conditions noted are these: NCTC13439, meropenem alone, K. pneumoniae NCTC 13439. The protocol:
as §2, §3, §4
(§5) The test compound was tested for minimum inhibitory concentration against 5 strains of Klebsiella pneumoniae ATCC BAA-1705 (KPC-2), ATCC BAA-2470 (NDM-1), ARLG-1196 (CTM-1 group, SHA NDM, TEM), NCTC 13440 (VIM-1), and NCTC 13439 (VIM), and one strain of Escherichia coli ARLG-2829 (NDM-5, OXA-1). According to the requirements of the Institute of Clinical And Laboratory Standard (CLSI), the minimum inhibitory concentration (MIC) of each drug combination was determined by liquid microdilution method under the premise of fixing the concentration of the compound to be tested at 8 μg/mL. The test method was the same as above, and the concentration of meropenem ranged from 0.125 to 8 μg/mL.

Data set [7] deals with Escherichia coli ARLG-2829 (NDM-5, OXA-1). Described as above. The format is cell-based. On the procedure:
as §2, §3, §4, §5

Data set [8] relates to Klebsiella pneumoniae ATCC BAA-1705 (KPC-2). The description is as above. The format is cell-based. The conditions noted are these: ATCCBAA1705, meropenem alone, K. pneumoniae ATCC BAA-1705. On the procedure: as §2, §3, §4, §5
Data set [9] concerns Klebsiella pneumoniae ATCC BAA-2470 (NDM-1). The data set is described as above. The format is cell-based. The conditions noted are these: ATCCBAA2470. On the procedure:
as §2, §3, §4, §5

Data set [10] concerns Klebsiella pneumoniae NCTC 13440 (VIM-1). The data set is described as above. It counts as cell-based. The conditions noted are these: NCTC13440, meropenem alone, K. pneumoniae NCTC 13440. The protocol: as §2, §3, §4, §5
The subject of data set [11] is Klebsiella pneumoniae ARLG-1196 (CTM-1 group, SHA NDM, TEM). Described as above. The conditions noted are these: meropenem alone, K. pneumoniae ARLG-1196. The format is cell-based. On the procedure: as §2, §3, §4, §5
The mark [12] stands for this setting: 100 mg/kg, intravenous bolus 100 mpk.
Where [13] appears, read: 300 mg/kg, intravenous bolus 300 mpk.
[14] abbreviates: compound + meropenem fixed at 4 μg/mL.

In data set [1] (setting [12]), `CCOc1ccc2c(c1C(=O)O)O[B-](O)(O)CO2` [Compound 15] gave an AUC(0-t) of 549 µg·h/mL, a C0 of 580 µg/mL, a clearance of 0.181 L/h/kg and a half-life of 3.9 h. Also, the Vd in data set [1] (setting [12]) is 0.583 L/kg. Besides, in data set [1] (100 mg/kg, oral 100 mpk), the AUC(0-t) was 278 µg·h/mL, the Cmax was 35.2 µg/mL, the Tmax is 2 h and the half-life was 4.99 h. In [1] (100 mg/kg, oral 100 mpk, AUC0-inf (100 mpk PO)/AUC0-inf (100 mpk IV)), this compound showed a bioavailability of 52.2%. For the same compound, in [1] (setting [13]), the AUC(0-t) is 1160 µg·h/mL, the C0 worked out at 1390 µg/mL, the clearance stood at 0.257 L/h/kg and the half-life was 4.56 h. For the same compound, the Vd in data set [1] (setting [13]) was determined as 0.96 L/kg. In addition, in data set [2] (compound + meropenem fixed at 4 μg/mL, K. pneumoniae ARLG-1196, CTM-1 and isoforms thereof, SHV, NDM, TEM), the MIC turned out to be 0.625 mg/L. Moreover, in data set [3] (compound + meropenem fixed at 4 μg/mL, E. coli ARLG-2829 (urine clinical isolate), NDM-5, OXA-1), the MIC came to 1.25 mg/L. The MIC in [4] (setting [14]) was at most 0.3125 mg/L. The minimum inhibitory concentration (MIC) in data set [5] (setting [14]) came out at 0.625 mg/L.

As to `C[C@@H](O)[C@H]1C(=O)N2C(C(=O)O)=C(S[C@@H]3CN[C@H](C(=O)N(C)C)C3)[C@H](C)[C@H]12` [Meropenem, meropenem, reference compound], the MIC in data set [6] is 4 mg/L; in data set [7] it was 128 mg/L; in [8] it was 32 mg/L; in data set [9] it was 128 mg/L; in data set [10], 16 mg/L; in data set [11] it was 64 mg/L. Also, the MIC is 64 mg/L in [2] (Klebsiella pneumoniae, meropenem alone, K. pneumoniae ARLG-1196, read-out: MIC); above 64 mg/L in [3] (Escherichia coli, meropenem alone, E. coli ARLG-2829, read-out: MIC); 32 mg/L in data set [4] (Klebsiella pneumoniae, ATCCBAA1705, meropenem alone, read-out: MIC); 64 mg/L in [5] (Klebsiella pneumoniae, ATCCBAA2470, meropenem alone, read-out: MIC).
